Source: ChEMBL document CHEMBL3046148, “Synthesis and biological evaluation of resveratrolcoumarin hybrid compounds as potential antitumor agents” (Med Chem Res, 2013)

Key:
Assay type in all cases: functional, cell-based; call rule not given here
MCF7 = experiment: Cytotoxicity against Homo sapiens (human) MCF7 cells assessed as growth inhibition after 48 hr by MTT assay
K562 = experiment: Cytotoxicity against Homo sapiens (human) K562 cells assessed as growth inhibition after 48 hr by MTT assay
[1] = Cytotoxicity against Homo sapiens (human) HCT28 cells assessed as growth inhibition after 48 hr by MTT assay
[2] = Homo sapiens, MCF7, 48 h, read-out: IC50
[3] = Homo sapiens, 48 h, read-out: IC50
[4] = Homo sapiens, K562, 48 h, read-out: IC50

Compound | IC50 (MCF7; [2]) | IC50 (K562; k562) | IC50 [1, 3] | IC50 (MCF7; mcf7) | IC50 [1] | IC50 (K562; [4])
COc1cc(/C=C\c2ccc3oc(=O)c(-c4ccc(OC)c(OC)c4)cc3c2)cc(OC)c1 [CIS-3-(3,4-DIMETHOXYPHENYL)-6-(3,5-DIMETHOXYSTYRYL)COUMARIN] | 9 µM | Not Active | 13.5 µM | – | – | –
COc1ccc(/C=C\c2ccc3oc(=O)c(-c4ccc(OC)c(OC)c4)cc3c2)cc1 [CIS-3-(3,4-DIMETHOXYPHENYL)-6-(4-METHOXYSTYRYL)COUMARIN] | – | Not Active | – | Not Active | Not Active | –
COc1ccc(-c2cc3cc(/C=C\c4ccccc4)ccc3oc2=O)cc1OC [CIS-3-(3,4-DIMETHOXYPHENYL)-6-STYRYLCOUMARIN] | – | Not Active | – | Not Active | Not Active | –
COc1ccc(-c2cc3cc(/C=C\c4ccccc4)ccc3oc2=O)cc1 [CIS-3-(4-METHOXYPHENYL)-6-STYRYLCOUMARIN] | – | Not Active | – | Not Active | Not Active | –
COc1ccc(-c2cc3cc(/C=C\c4cc(OC)cc(OC)c4)ccc3oc2=O)cc1 [CIS-6-(3,5-DIMETHOXYSTYRYL)-3-(4-METHOXYPHENYL)COUMARIN] | – | Not Active | – | Not Active | Not Active | –
COc1cc(/C=C\c2ccc3oc(=O)c(-c4ccccc4)cc3c2)cc(OC)c1 [CIS-6-(3,5-DIMETHOXYSTYRYL)-3-PHENYLCOUMARIN] | – | Not Active | – | Not Active | Not Active | –
COc1ccc(/C=C\c2ccc3oc(=O)c(-c4ccccc4)cc3c2)cc1 [CIS-6-(4-METHOXYSTYRYL)-3-PHENYLCOUMARIN] | 10.9 µM | – | 10.7 µM | – | – | 3.79 µM
COc1cc(/C=C/c2ccc3oc(=O)c(-c4ccc(OC)c(OC)c4)cc3c2)cc(OC)c1 [TRANS-3-(3,4-DIMETHOXYPHENYL)-6-(3,5-DIMETHOXYSTYRYL)COUMARIN] | 7.41 µM | Not Active | 10.1 µM | – | – | –
COc1ccc(/C=C/c2ccc3oc(=O)c(-c4ccc(OC)c(OC)c4)cc3c2)cc1 [TRANS-3-(3,4-DIMETHOXYPHENYL)-6-(4-METHOXYSTYRYL)COUMARIN] | 4.23 µM | – | 7.14 µM | – | – | 8.76 µM
COc1ccc(-c2cc3cc(/C=C/c4ccccc4)ccc3oc2=O)cc1OC [TRANS-3-(3,4-DIMETHOXYPHENYL)-6-STYRYLCOUMARIN] | 14.5 µM | Not Active | 10.8 µM | – | – | –
COc1ccc(-c2cc3cc(/C=C/c4cc(OC)cc(OC)c4)ccc3oc2=O)cc1 [TRANS-6-(3,5-DIMETHOXYSTYRYL)-3-(4-METHOXYPHENYL)COUMARIN] | 11.2 µM | – | 19.2 µM | – | – | 11.5 µM
COc1cc(/C=C/c2ccc3oc(=O)c(-c4ccccc4)cc3c2)cc(OC)c1 [TRANS-6-(3,5-DIMETHOXYSTYRYL)-3-PHENYLCOUMARIN] | 13.5 µM | Not Active | – | – | Not Active | –
COc1ccc(/C=C/c2ccc3oc(=O)c(-c4ccccc4)cc3c2)cc1 [TRANS-6-(4-METHOXYSTYRYL)-3-PHENYLCOUMARIN] | 7.32 µM | – | 3.78 µM | – | – | 13 µM
COc1ccc(/C=C/c2cc(OC)cc(OC)c2)cc1 [TRISMETHOXYRESVERATROL] | 8.41 µM | – | 4.83 µM | – | – | 6.39 µM
